pIC50: −log10 of the molar value.
Key:
COX-1 = COX-1 (Ovis aries, UniProt P05979); assay: COX-1 inhibition assay (as disclosed in Chem. Med. Chem. 2012, 7, 629-641); format: biochemical
Protocol: The biological assays were carried out as disclosed in Chem. Med. Chem. 2012, 7, 629 - 641.

[1] = test system: ovarian surface epithelial cells allografted in female nude mice; conditions: after treatment with SC-560, recent reports; cited from earlier work

Chain of COX-1 (P05979 25-600): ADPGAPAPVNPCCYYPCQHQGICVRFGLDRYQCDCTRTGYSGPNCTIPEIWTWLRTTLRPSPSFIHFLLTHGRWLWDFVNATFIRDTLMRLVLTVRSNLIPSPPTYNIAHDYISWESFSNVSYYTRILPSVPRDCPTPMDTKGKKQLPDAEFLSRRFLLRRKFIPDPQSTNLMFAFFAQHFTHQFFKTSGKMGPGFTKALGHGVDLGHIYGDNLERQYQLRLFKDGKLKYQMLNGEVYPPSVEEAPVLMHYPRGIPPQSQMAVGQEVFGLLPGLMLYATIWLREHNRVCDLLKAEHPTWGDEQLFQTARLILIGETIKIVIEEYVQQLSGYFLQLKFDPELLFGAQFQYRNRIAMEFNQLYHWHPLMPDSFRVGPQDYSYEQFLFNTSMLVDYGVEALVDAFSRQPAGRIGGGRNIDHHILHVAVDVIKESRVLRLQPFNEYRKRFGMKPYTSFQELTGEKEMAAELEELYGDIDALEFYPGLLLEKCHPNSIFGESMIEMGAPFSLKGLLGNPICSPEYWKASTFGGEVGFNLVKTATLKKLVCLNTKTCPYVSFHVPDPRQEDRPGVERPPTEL

| pIC50 (COX-1) | SMILES | tumor growth [1] |
| --- | --- | --- |
| 7.12 | COc1ccc(-c2noc(C)c2-c2ccc(OC)cc2)cc1 [(III), 3,4-bis(4-methoxyphenyl)-5-methylisoxazole] |  |
|  | COc1ccc(-n2nc(C(F)(F)F)cc2-c2ccc(Cl)cc2)cc1 [SC-560] | significantly reduction of tumor growth |
